Columns and labels:
[1] = test system: CHIKV; assay: Viral entry assay; details: 1.56 µM
[2] = MTT cytotoxicity assay; details: African green monkey
[3] = test system: Vero CCL-81 cells; assay: MTT cytotoxicity assay; details: Vero CCL-81, ≥90% cell viability
[4] = test system: CHIKV; assay: Viral attachment assay; details: 1.56 µM and 0.78 µM, at 4°C and 37°C
[5] = test system: CHIKV; assay: Viral RNA copy number by quantitative RT-PCR; details: cotreatment
[6] = test system: CHIKV; assay: Antiviral assay (pre-, co-, posttreatment) with FFU readout; details: for mean log10 viral titer/ml: VC 8.194; for anti-CHIKV activity in primary screening: highest nontoxic concentration

**Q.** For `C[C@H](N[C@@H](CCc1ccccc1)C(=O)O)C(=O)N1CCC[C@H]1C(=O)O` [Enalaprilat], which “effect on virus titer in virus entry assay” value [1] is on record?
**A.** affects the virus titer

**Q.** What about the CC50 [2] of the same molecule?
**A.** 83 ± 18.7 µM

**Q.** And the “The maximum nontoxic concentration used for primary screening of drugs against CHIKV” value [3]?
**A.** 1.56 µM

**Q.** What about the “effect on virus attachment” value [4] of the same molecule?
**A.** shown to influence virus attachment

**Q.** What about the “effect on viral RNA titer” value [5] of the same molecule?
**A.** No significant reduction

**Q.** And the “anti chikungunya activity” value ([6]; Vero CCL-81, any treatment condition)?
**A.** exhibit anti chikungunya activity

**Q.** What about the “Selectivity Index (SI)” value ([6]; cotreatment) of the same molecule?
**A.** 167.42

**Q.** What about the “mean log10 viral titer/ml” value ([6]; cotreatment, 0.78 µM) of the same molecule?
**A.** 7.297 log10 FFU/ml

**Q.** What about the “mean log10 viral titer/ml” value ([6]; cotreatment, 1.56 µM) of the same molecule?
**A.** 7.052 log10 FFU/ml

**Q.** And the IC50 ([6]; cotreatment, FFU, Vero CCL-81)?
**A.** 0.496 µM

**Q.** And the “anti-CHIKV activity in primary screening” value ([6]; cotreatment, FFU)?
**A.** effective

**Q.** And the “anti-CHIKV activity in primary screening” value ([6]; posttreatment, FFU)?
**A.** did not affect

— article PMC10174255, “Drug repurposing approach against chikungunya virus: an in vitro and in silico study” (Frontiers in Cellular and Infection Microbiology, 2023)
